Experimental data taken from PubChem BioAssay AID1645862 (Buhrlage Lab, Dana-Farber Cancer Institute and Novartis …, 2021).
pIC50: −log10 of the molar value. Calls of active or inactive are those of the source. No rule for the calls is given here.

biological target: Ubiquitin carboxyl-terminal hydrolase 8 (Homo sapiens) (UniProt P40818); assay: Ubiquitin-specific protease 8 inhibitors, concentration-effect, biochemical, validation of initial actives (AID 1645862); conditions: recombinant USP8 deubiquitinase activity assay;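 also: potency reflects inhibition of USP8 cleavage of a ubiquitin rhodamine substrate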
Sequence (P40818 whole entry, looked up): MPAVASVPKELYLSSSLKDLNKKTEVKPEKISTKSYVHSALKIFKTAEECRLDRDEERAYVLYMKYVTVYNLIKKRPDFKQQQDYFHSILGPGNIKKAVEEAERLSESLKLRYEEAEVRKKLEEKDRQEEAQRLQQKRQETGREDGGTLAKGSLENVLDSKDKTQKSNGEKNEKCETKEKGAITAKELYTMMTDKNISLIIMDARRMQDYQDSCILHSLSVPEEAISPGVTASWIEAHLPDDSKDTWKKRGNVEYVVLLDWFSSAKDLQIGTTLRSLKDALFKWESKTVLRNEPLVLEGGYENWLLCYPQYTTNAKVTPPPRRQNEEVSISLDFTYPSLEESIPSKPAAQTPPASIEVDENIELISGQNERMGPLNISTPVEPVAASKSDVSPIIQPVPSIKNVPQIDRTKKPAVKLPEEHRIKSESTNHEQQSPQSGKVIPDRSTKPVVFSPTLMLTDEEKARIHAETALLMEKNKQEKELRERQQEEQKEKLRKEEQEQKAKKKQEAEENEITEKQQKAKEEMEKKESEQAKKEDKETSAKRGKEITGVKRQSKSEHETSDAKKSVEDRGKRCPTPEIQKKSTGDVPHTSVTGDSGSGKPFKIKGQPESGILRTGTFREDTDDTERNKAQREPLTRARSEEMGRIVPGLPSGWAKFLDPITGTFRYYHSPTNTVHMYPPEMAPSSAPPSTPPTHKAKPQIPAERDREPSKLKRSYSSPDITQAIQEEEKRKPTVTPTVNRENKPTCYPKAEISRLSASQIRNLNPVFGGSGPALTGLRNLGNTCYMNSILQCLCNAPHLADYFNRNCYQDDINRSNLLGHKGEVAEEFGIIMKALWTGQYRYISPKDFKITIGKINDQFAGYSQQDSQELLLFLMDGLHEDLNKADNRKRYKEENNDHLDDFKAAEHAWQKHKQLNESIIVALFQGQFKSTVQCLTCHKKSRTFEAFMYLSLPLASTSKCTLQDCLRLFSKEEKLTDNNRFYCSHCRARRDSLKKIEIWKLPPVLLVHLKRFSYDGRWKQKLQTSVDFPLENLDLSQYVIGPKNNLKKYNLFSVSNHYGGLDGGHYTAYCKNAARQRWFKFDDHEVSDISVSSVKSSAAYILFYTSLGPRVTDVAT

| Compound | IC50 | pIC50 |
| --- | --- | --- |
| COc1ccc(-c2nc(Cn3nnc(C(=O)Nc4ccc(C)c(C)c4)c3N)c(C)o2)cc1 | > 40 µM (inactive) |  |
| O=C1c2ccccc2-c2nnc(-c3ccncc3)cc21 |  | 4.85 |
| Cc1cc(C)c(C#N)c(N2CCN(CCOc3ccc(Cl)cc3)CC2)n1 | > 40 µM (inactive) |  |
| CC(C)=CCc1c2c(c3occ(-c4ccc(O)c(O)c4)c(=O)c3c1O)C=CC(C)(C)O2 |  | 4.80 |
| O=C(CNS(=O)(=O)c1ccc(F)cc1)N1CCCC(c2nnc3ccccn23)C1 (stereo not drawn) | > 40 µM (inactive) |  |
| O=c1[nH]c(C2CCN(S(=O)(=O)c3ccc(S(=O)(=O)NC4CC4)cc3)CC2)nc2c1nnn2Cc1c(Cl)cccc1Cl | > 40 µM (inactive) |  |
| COc1ccc(C2/C(=C(\O)c3ccccc3)C(=O)C(=O)N2c2nc3ccc(F)cc3s2)cc1 (stereo not drawn) |  | 4.57 |
| CCCCOc1ccc(-c2cc3n(c(=N)c2C#N)CCc2cc4c(cc2-3)OCCCO4)cc1OC | > 40 µM (inactive) |  |
| Cc1cccc(N2C(=O)/C(=C\c3ccc4c(c3)OCCO4)c3ccccc3C2=O)c1 | > 40 µM (inactive) |  |
| Cc1sc(NC(=O)Cn2nnc3ccccc32)nc1-c1ccc2c(c1)CCN2C(=O)c1ccccc1F | > 40 µM (inactive) |  |
| COc1cccc(NC(=O)c2oc3ccccc3c2NC(=O)COc2cccc(OC)c2)c1 | > 40 µM (inactive) |  |
| CCC(=O)Nc1nc2cc(NC(=O)Nc3ccccc3Cl)ccc2s1 | > 40 µM (inactive) |  |
| O=C(c1[nH]nc2c1COc1ccccc1-2)N1CCN(c2ccccn2)CC1 | > 40 µM (inactive) |  |
| COc1cc2c(c(OC)c1OC)-c1ccc(NCCc3cccc(F)c3)c(=O)cc1[C@@H](NC(C)=O)CC2 | > 40 µM (inactive) |  |
| Cc1ccccc1-c1noc(-c2ccccc2OCC(=O)NC(C)C)n1 | > 40 µM (inactive) |  |
| Cc1ccc(Cn2cc(C(=O)Nc3ccccc3C(N)=O)ccc2=O)cc1 |  | 5.13 |
| COc1ccc(/C=C/C(=O)Nc2nc3n(n2)C(c2ccccc2)CC(=O)N3)cc1 (stereo not drawn) | > 40 µM (inactive) |  |
| COc1ccc2nc(N3CC(C(=O)Nc4ccc(C(N)=O)cc4)C3)sc2c1 | > 40 µM (inactive) |  |
| O=C(Nc1cccc(-c2nc3cnccc3o2)c1)c1ccc(Br)o1 | > 40 µM (inactive) |  |
| O=C(Nc1nnc(-c2cccc([N+](=O)[O-])c2)o1)C1CCN(S(=O)(=O)c2ccc3c(c2)CCC3)CC1 | > 40 µM (inactive) |  |
| CCOc1ccc(NC(=O)Cn2c(=O)n(CCCCCC(=O)NCc3ccc(F)cc3)c(=O)c3sccc32)cc1 | > 40 µM (inactive) |  |
| CSc1ncccc1C(=O)NC1(O)C(=O)c2ccccc2C1=O |  | 5.29 |
| CCN(CC)C(=O)c1sc(NC(=O)c2cc(-c3ccccc3Cl)nc3ccccc23)c(C(N)=O)c1C | > 40 µM (inactive) |  |
| O=C(CSc1nc2ccccc2[nH]1)Nc1ccc2c(c1)OCCO2 | > 40 µM (inactive) |  |
| Cc1ccc(Nc2nc(O)c(CC(=O)Nc3ccc(C)cc3C)s2)cc1 | > 40 µM (inactive) |  |
| O=C(NCCc1nc2ccccc2n1CCOc1ccccc1Cl)C1CCCCC1 | > 40 µM (inactive) |  |
| O=C(CCn1c(=O)c2sccc2n(CC(=O)OCc2ccccc2)c1=O)NCc1ccc2c(c1)OCO2 | > 40 µM (inactive) |  |
| CCC(=O)Nc1nc2cc(NC(=O)Nc3cccc(C)c3)ccc2s1 | > 40 µM (inactive) |  |

| Compound | IC50 | pIC50 |
| --- | --- | --- |
| CNC(=O)c1cc2nc(N(C)C)n(-c3ccc(F)cc3)c2s1 | > 40 µM (inactive) |  |
| O=C(Cc1ccc(-n2c(=O)c3ccccc3n(CC(=O)Nc3ccc(Cl)cc3Cl)c2=O)cc1)NCc1ccco1 | > 40 µM (inactive) |  |
| Fc1cccc(Nc2nc(-c3ccccn3)nc3ccccc23)c1 | > 40 µM (inactive) |  |
| N#Cc1cc(C(=O)c2cc(Cl)ccc2O)cn(-c2ccccn2)c1=O | > 40 µM (inactive) |  |
| Cc1cccc(OCCn2c(CCNC(=O)C3CCCCC3)nc3ccccc32)c1 | > 40 µM (inactive) |  |
| O=c1[nH]c(C2CCN(S(=O)(=O)c3ccc(S(=O)(=O)NC4CCCCC4)cc3)CC2)nc2c1nnn2Cc1c(F)cccc1Cl | > 40 µM (inactive) |  |
| CCCCCCCc1cc(OC(=O)c2c(CCCCCCC)cc(O)cc2O[C@@H]2O[C@H](CO)[C@H](O)[C@H](O)[C@H]2O)cc(O)c1C(=O)O |  | 5.03 |
| Cc1cccc(-n2ccnc(SCC(=O)Nc3ccc(Cl)cc3F)c2=O)c1 | > 40 µM (inactive) |  |
| O=C(CSc1nnc2c3ccccc3nc(-c3ccco3)n12)N1CCCc2ccccc21 | > 40 µM (inactive) |  |
| O=C(CCn1c(=O)c2ccccc2n(Cc2ccc(F)cc2Cl)c1=O)NCc1ccco1 | > 40 µM (inactive) |  |
| O=C(CNC(=O)c1ccc2nc(-n3cccc3)sc2c1)NCc1ccccc1 | > 40 µM (inactive) |  |
| O=C(NC1CCCC1)c1ccc(Cn2c(=O)c3ccccc3n(Cc3cc(=O)n4ccccc4n3)c2=O)cc1 | > 40 µM (inactive) |  |
| Cn1c(O)c(C2=Nc3ccccc3SC(c3cccc(O)c3)C2)c(=O)[nH]c1=O (stereo not drawn) | > 40 µM (inactive) |  |
| Cc1cccc(N2C(=O)/C(=C\c3cc(C#N)n(C)c3C)c3ccccc3C2=O)c1 | > 40 µM (inactive) |  |
| CSc1ccc(CNC(=O)Cn2c(=O)[nH]c3c(-c4ccccc4)c[nH]c3c2=O)cc1 | > 40 µM (inactive) |  |
| O=c1[nH]c(C2CCN(S(=O)(=O)c3ccc(S(=O)(=O)NC4CCCC4)cc3)CC2)nc2c1nnn2Cc1cccc(Cl)c1 | > 40 µM (inactive) |  |
| Cc1ccc(-c2nn(C(C)(C)C)c3ncnc(NS(=O)(=O)c4ccc(Cl)cc4)c23)cc1 | > 40 µM (inactive) |  |
| COc1ccccc1Nc1ncc(C(=O)NCCc2ccc(Cl)cc2)c2ccccc12 | > 40 µM (inactive) |  |
| NC(=O)c1ccccc1NC(=O)COc1ccc2c(c1)oc(=O)c1ccccc12 |  | 4.49 |
| Cc1ccc(CNC(=O)c2nc(-c3ccc4c(c3)OCC(=O)N4C)no2)cc1 | > 40 µM (inactive) |  |
| COc1ccc(NC(=O)Cn2c(=O)n(CCCCC(=O)NCc3ccco3)c(=O)c3ccccc32)cc1Cl | > 40 µM (inactive) |  |
| Cc1ccc(NC(=O)c2nnn(CC(=O)Nc3cccc(C)c3C)c2N)cc1C | > 40 µM (inactive) |  |
| Cc1ccc(Nc2nc(Nc3cccc(F)c3)nc3nccnc23)c(C)c1 | > 40 µM (inactive) |  |
| CCOC(=O)C1CCN(Cc2cc(=O)oc3cc(O)c(O)cc23)CC1 |  | 5.89 |
| CCCCCCCCCC(CCCCCCCCCC(=O)O)O[C@H]1O[C@@H](COC(C)=O)[C@H](O)[C@@H](OC(=O)CC(=O)O)[C@H]1O (stereo partly drawn) | > 40 µM (inactive) |  |
| COc1cccc(NC(=O)c2cnc(N3CCCC3)nc2C)c1 | > 40 µM (inactive) |  |
| O=S1(=O)CCN(Cc2c(F)cccc2F)c2c(F)nc(N3CCOCC3)c(F)c21 | > 40 µM (inactive) |  |

Continued, values first:

| IC50 | pIC50 | Compound |
| --- | --- | --- |
| > 40 µM (inactive) |  | Cc1ncc(CO)c2c1Oc1nc(-c3cccc(Cl)c3)nc(SCC(=O)N3CCCCC3)c1C2 |
| > 40 µM (inactive) |  | CSc1ccc(C(=O)Nc2nc(-c3ccncc3)cs2)cc1 |
| > 40 µM (inactive) |  | CCOc1ccc(Oc2nc(CN3CCCC3)nc3sc(C)c(C)c23)cc1 |
| > 40 µM (inactive) |  | Cc1sc(NC(=O)c2ccc(S(=O)(=O)N(C)Cc3ccccc3)cc2)c(C(N)=O)c1C |
| > 40 µM (inactive) |  | O=C(Cn1c(=O)n(CCC(=O)NC2CCCC2)c(=O)c2ccccc21)NCc1ccccc1Cl |
| > 40 µM (inactive) |  | Cc1nnc(NC(=O)C2CC(=O)N(CCc3ccc(F)cc3)C2)s1 (stereo not drawn) |
| > 40 µM (inactive) |  | COC(=O)c1ccc(C2c3[nH]c4ccccc4c3C[C@@H]3C(=O)N(c4ccc5c(c4)OCCO5)C(=O)N23)cc1 (stereo partly drawn) |
|  | 4.64 | O=C(c1ccccn1)N1CCC2(CC1)CC1(CO2)Nc2ccccc2-n2cccc21 (stereo not drawn) |
| > 40 µM (inactive) |  | Cc1cc(C(=O)CSc2nc3ccccc3[nH]2)c(C)n1Cc1ccco1 |
| > 40 µM (inactive) |  | Cc1nc(SCC(=O)Nc2ccc(S(N)(=O)=O)cc2)c2cnn(-c3ccccc3)c2n1 |
| > 40 µM (inactive) |  | Cc1ccc2c(c1)c1ncn(Cc3nc(C)no3)c(=O)c1n2CC(=O)NCc1ccccc1 |
| > 40 µM (inactive) |  | Cc1ccc(NC(=O)Cn2c(=O)n(CCC(=O)NCCc3ccccc3)c(=O)c3ccccc32)cc1C |
| > 40 µM (inactive) |  | Cc1ccc2c(c1)c(=O)c(C(=O)c1ccccc1)cn2CC(=O)Nc1ccc2c(c1)OCO2 |
| > 40 µM (inactive) |  | O=C(c1cccnc1)N1CCN(c2cc(-c3ccccc3)[nH]n2)CC1 |
| > 40 µM (inactive) |  | Cc1nc(-c2ccc(C(=O)Nc3ccc(F)cc3)cc2)cs1 |
|  | 4.67 | O=C(Nc1ccc(-c2cn3ccsc3n2)cc1)c1ccc(Cl)c([N+](=O)[O-])c1 |
| > 40 µM (inactive) |  | COc1ccc(Cl)cc1NC(=O)Cn1c(=O)n(CCCCC(=O)NCCc2ccccc2)c(=O)c2ccccc21 |

| IC50 | pIC50 | Compound |
| --- | --- | --- |
| > 40 µM (inactive) |  | COc1ccc(NC(=O)Cn2c(=O)n(CCCC(=O)NC3CCCC3)c(=O)c3cc(Cl)ccc32)c(OC)c1 |
| > 40 µM (inactive) |  | Cc1nc2nc(C(c3ccccc3)c3ccccc3)[nH]n2c(=O)c1Cc1ccccc1 |
|  | 4.53 | Cn1c2ccccc2c(=O)c2c(=O)n(Cc3ccco3)c(-c3ccccc3F)nc21 |
| > 40 µM (inactive) |  | O=C(Nc1ccncc1)c1cn(Cc2ccccc2)cc2c(=O)n(-c3ccccc3)nc1-2 |
| > 40 µM (inactive) |  | O=C(Nc1ccccc1-c1nc(-c2ccccn2)no1)c1cc(Cl)ccc1Cl |
| > 40 µM (inactive) |  | Nc1c(C(=O)NCc2ccc3c(c2)OCO3)nnn1Cc1ccc(Br)cc1F |
| > 40 µM (inactive) |  | Cc1ccc(-c2cc(C(F)F)n3ncc(C(=O)Nc4ccc(O)cc4)c3n2)cc1 |
| > 40 µM (inactive) |  | CCOc1ccccc1NC(=O)Cn1c(=O)n(CCC(=O)NCCc2ccc(OC)c(OC)c2)c(=O)c2ccccc21 |
| > 40 µM (inactive) |  | N#Cc1ccccc1Cn1c(=O)n(CCCC(=O)NCc2ccc(F)cc2)c(=O)c2ccccc21 |
|  | 4.54 | COc1ccc(Nc2nnc(Cc3ccc(Cl)cc3)c(=O)[nH]2)cc1 |
| > 40 µM (inactive) |  | O=C(c1cccnc1)N1CCCC(Cc2cc(-c3ncc[nH]3)ncn2)C1 (stereo not drawn) |
| > 40 µM (inactive) |  | COc1ccc2[nH]c(=O)c(CN(C)C(=O)c3ccc([N+](=O)[O-])cc3)cc2c1 |
| > 40 µM (inactive) |  | O=C(CSc1nc2ccccc2[nH]1)Nc1cccc2c1OCCO2 |
| > 40 µM (inactive) |  | Cc1ccccc1Cn1c(=O)n(CC2CCC(C(=O)NC3CCCC3)CC2)c(=O)c2ccccc21 (stereo not drawn) |
| > 40 µM (inactive) |  | COc1ccc(C(=O)Nc2nc(-c3ccc4c(c3)NC(=O)CO4)c(C)s2)cc1OC |
| > 40 µM (inactive) |  | O=C(Cc1nnc(NC(=O)Nc2ccc3c(c2)OCO3)s1)NCc1ccccc1 |
